Measured values taken from patent US4191780A, “Bromhexine derivatives and process for making same” (priority 1978, dated 1980).
“Also recorded” adds a separate entry of the source.

Key:
[1] = Long-term toxicity in rats: hematological parameters; type: in vivo, rat; conditions: daily oral Bromhexine 250 mg/kg, IFT 1026 350 mg/kg
Description: The hematological and biochemical values relating to the groups under treament with the above reported doses are shown in Tables Nos. 4 and 5. These values are virtually the same for both treated and control animals.
Effect of daily oral administration of Bromhexine 250 mg/kg
and IFT 1026 350 mg/kg on the hematological parameters in […]

[2] = tested on: Pain induced by a chemical stimulus; test: Siegmund Test: pain induced by a chemical stimulus (acetic acid writhing); type: in vivo, mice; conditions: mouse, 300 mg/kg oral
Description: (§1) Two test methods are used for establishing the action of Bromhexine and IFT 1026 on noci-ceptive stimuli in mice.
(§2) (a) Pain induced by a chemical stimulus according to the method of Siegmund (Siegmund E., Cadmier, R., and Lu, G. Proc. Soc. exp. Biol. N.Y. 95, 729--1957). The mice distributed at random into groups of 10 animals, are deprived of solid food for the 18-hour period prior to the test. […] Thirty minutes after treatment the mice are injected i.p. with 0.1 ml/10 g of a 1.5% acetic acid solution. The writhing is recorded for a 20 min. period following this i.p. injection.

noci-ceptive stimuli = test: Study of analgesic action on mice (both tests); type: in vivo; conditions: 300 mg/kg oral
Description: as §1, §2
(§3) (b) Pain induced by a physical stimulation according to the hot-plate test technique by Eddy and Leimbach (Eddy, N. B. and Leimbach, O., J. Pharmacol. exp.Ther. 107, 383--1953). The temperature of the plate was kept at 57° C. Groups of 12 mice are treated as described under (a) above. The reaction times are measured 15 min. before treatment (Ro) and 4 times after the administration (every 15 min). Only the maximal response is taken into account (Rmax).

[3] = Long-term toxicity in rats: organ weights at necropsy; type: in vivo; conditions: fresh weight, daily oral 250 mg/kg Bromhexine, 350 mg/kg IFT 1026
Description: Effect of daily oral administration of 250 mg/kg Bromhexine and 350 mg/kg
organ weights of rats, expressed as grams of fresh weight.

[4] = tested on: Pain induced by a physical stimulation; test: Hot-plate Test (Eddy and Leimbach): pain induced by a physical stimulation; type: in vivo, mice; conditions: mouse, 300 mg/kg oral, plate at 57° C.
Description: as §1, §3

[5] = Long-term toxicity in rats: biochemical parameters; type: in vivo, rat; conditions: daily oral 250 mg/kg Bromhexine, 350 mg/kg IFT 1026
[6] = tested on: Cough elicited by 15% citric acid spray; test: Antitussive activity in mice, citric acid spray cough; type: in vivo; conditions: Mus musculus, oral, 1 hour after administration, confidence limits P = 0.05
Description: (§4) (6) Antitussive effect in Guinea-pigs and mice
(§5) Cough is elicited by 15% citric acid spray in both species, according to the method by Harsany et al. (Boll. Chim. Farm. 112, 691, 1973). The effect was tested 1 hour after oral administration and 30 min. after intraperitoneal application of the antitussive agents on mice and Guinea-pigs respectively.
(§6) ED50 values of the drugs are computed by the method of Litchfield and Wilcoxon (Litchfield, J. T. Jr., and Wilcoxon F., J. Pharmacol. exp. Ther. 96,99--1949).

[7] = Bromsulphtalein (BSP) clearance in rats treated with the lower dose; type: in vivo; conditions: 30 min after 50 mg/kg BSP i.v., lower dose of drug
Description: The possibility to use BSP for the diagnosis of lesions in liver parenchyma is well known. Bromsulphtalein (BSP) clearance was made according to Carpi and Parenti (Carpi, C. and M. A. Parenti, Il Farmaco, Ed. Pr. vol. 17, page 45, 1962). Thirty minutes after the i.v. administration of 50 mg/kg BSP to control rats, the mean plasma level of the dyestuff is 80±12 mcg/ml.
% of rate showing BSP plasma levels greater than 80 mcg/ml
(control values) and 160 mcg/ml (two-fold control values)

[8] = Long-term toxicity in rats: mortality, pathology and general state
Description: Long-term toxicity (16 weeks) of IFT 1026 is tested in comparison to the parent compound (Bromhexine).

[9] = Long-term toxicity in rats (16 weeks): mean body weight; type: in vivo
Source text: Effect of daily oral administration of various doses of
IFT 1026 and Bromhexine on mean body weight of rats.

[10] = Eight-day toxicity studies in mice, lethality (i.p.); type: in vivo; conditions: for Total number of deaths: 8 days
Source text: Eight-day toxicity studies of IFT 1026 and Bromhexine in mice.

[11] = tested on: Cough elicited by 15% citric acid spray; test: Antitussive activity in Guinea-pigs, citric acid spray cough; type: in vivo; conditions: Cavia porcellus, ip, 0.5 h, intraperitoneal, 30 min. after application, confidence limits P = 0.05
Description: as §4, §5, §6

## COc1ccccc1OCC(=O)Nc1c(Br)cc(Br)cc1CN(C)C1CCCCC1 [IFT 1026, N-(2-guaiacol-glycolyl-amino-3,5-dibromobenzyl)N-cyclohexylmethylamine]
[1]; females
  RBC, mean ± SE: 817 ± 58 10^6 /ml
  WBC, mean ± SE: 179 ± 26 10^2 /ml
[1]; males
  RBC, mean ± SE: 657 ± 60 10^6 /ml
  WBC, mean ± SE: 140 ± 10 10^2 /ml
[2]
  Siegmund Test, number of writhings for a 20 min. period, mean ± SE: 34 ± 3
noci-ceptive stimuli
  Responses to algogenic stimuli: not suppressed
[3]; females
  organ weight, Adrenal glands: 4.6 ± 0.1 10^-2 grams
  organ weight, Brain: 19.4 ± 1 10^-1 grams
  organ weight, Heart: 7.3 ± 0.8 10^-1 grams
  organ weight, Kidneys: 18.2 ± 0.4 10^-1 grams
  organ weight, Liver: 10.1 ± 0.3 grams
  organ weight, Lungs: 14.2 ± 1.1 10^-1 grams
  organ weight, Spleen: 6.5 ± 0.2 10^-1 grams
[3]; males
  organ weight, Adrenal glands: 3.7 ± 0.5 10^-2 grams
  organ weight, Brain: 13.4 ± 0.4 10^-1 grams
  organ weight, Heart: 7.1 ± 0.4 10^-1 grams
  organ weight, Kidneys: 18.3 ± 0.4 10^-1 grams
  organ weight, Liver: 9.7 ± 0.9 grams
  organ weight, Lungs: 9.1 ± 0.8 10^-1 grams
  organ weight, Spleen: 6.3 ± 0.3 10^-1 grams
[4]
  Hot-plate Test (R max/Ro), mean ± SE: 1.62 ± 0.26
[5]; females
  A/G ratio (Albumin/Globulin), mean ± SE: 2.6 ± 0.3
  BUN, mean ± SE: 41.1 ± 2 mg %
  GLUCOSE, mean ± SE: 85.9 ± 8 mg %
  SGOT, mean ± SE: 25.1 ± 0.3 Units/ml
  SGPT, mean ± SE: 13.2 ± 0.4 Units/ml
  TOTAL PROTEIN, mean ± SE: 30.6 ± 2.4 mg/mL
[5]; males
  A/G ratio (Albumin/Globulin), mean ± SE: 2.2 ± 0.1
  BUN, mean ± SE: 39.9 ± 5 mg %
  GLUCOSE, mean ± SE: 73.7 ± 5 mg %
  SGOT, mean ± SE: 24.5 ± 0.6 Units/ml
  SGPT, mean ± SE: 13.1 ± 0.7 Units/ml
  TOTAL PROTEIN, mean ± SE: 28.2 ± 2.1 mg/mL
[6]
  ED50: 298 mg/kg
[7]; X^2 = 0.43, N.S.
  % showing BSP plasma levels >160 mcg/ml: 5.5%
  rats showing BSP plasma levels >160 mcg/ml, number/tested: 1/18
[7]; X^2 = 0.7, N.S.
  % showing BSP plasma levels >80 mcg/ml: 28%
  rats showing BSP plasma levels >80 mcg/ml, number/tested: 5/18
[8]; rat, in vivo
  animals that died during the study: 2 animals
  changes in general state of health, behaviour, body weight, blood and viscera: no significant changes
  long-term toxicity in the rats: weak
[8]; rats, subacute and long-term administration
  toxicity compared with Bromhexine (parent compound): less toxic than Bromhexine; also recorded: less toxic than the parent compound
[9]; females, 70 mg/kg daily oral, 0 days
  body weight, mean ± SE: 125 ± 6 g
[9]; females, 70 mg/kg daily oral, 21 days
  body weight, mean ± SE: 181 ± 5 g
[9]; females, 70 mg/kg daily oral, 45 days
  body weight, mean ± SE: 218 ± 2 g
[9]; females, 70 mg/kg daily oral, 60 days
  body weight, mean ± SE: 242 ± 2 g
[9]; females, 350 mg/kg daily oral, 0 days
  body weight, mean ± SE: 118 ± 2 g
[9]; females, 350 mg/kg daily oral, 21 days
  body weight, mean ± SE: 179 ± 5 g
[9]; females, 350 mg/kg daily oral, 45 days
  body weight, mean ± SE: 225 ± 7 g
[9]; females, 350 mg/kg daily oral, 60 days
  body weight, mean ± SE: 232 ± 10 g
[9]; females, 1400 mg/kg daily oral, 0 days
  body weight, mean ± SE: 122 ± 5 g
[9]; females, 1400 mg/kg daily oral, 21 days
  body weight, mean ± SE: 173 ± 7 g
[9]; females, 1400 mg/kg daily oral, 45 days
  body weight, mean ± SE: 211 ± 5 g
[9]; females, 1400 mg/kg daily oral, 60 days
  body weight, mean ± SE: 221 ± 8 g
[9]; males, 70 mg/kg daily oral, 0 days
  body weight, mean ± SE: 117 ± 7 g
[9]; males, 70 mg/kg daily oral, 21 days
  body weight, mean ± SE: 220 ± 4 g
[9]; males, 70 mg/kg daily oral, 45 days
  body weight, mean ± SE: 310 ± 4 g
[9]; males, 70 mg/kg daily oral, 60 days
  body weight, mean ± SE: 370 ± 6 g
[9]; males, 350 mg/kg daily oral, 0 days
  body weight, mean ± SE: 123 ± 8 g
[9]; males, 350 mg/kg daily oral, 21 days
  body weight, mean ± SE: 226 ± 6 g
[9]; males, 350 mg/kg daily oral, 45 days
  body weight, mean ± SE: 290 ± 7 g
[9]; males, 350 mg/kg daily oral, 60 days
  body weight, mean ± SE: 368 ± 4 g
[9]; males, 1400 mg/kg daily oral, 0 days
  body weight, mean ± SE: 121 ± 5 g
[9]; males, 1400 mg/kg daily oral, 21 days
  body weight, mean ± SE: 222 ± 7 g
[9]; males, 1400 mg/kg daily oral, 45 days
  body weight, mean ± SE: 295 ± 8 g
[9]; males, 1400 mg/kg daily oral, 60 days
  body weight, mean ± SE: 365 ± 9 g
[9]; rats, exception: Bromhexine 1000 mg/kg/day
  variations in the body weights versus control group: no significant variations
[10]; daily dose 450 mg/k
  Number of deaths at day 3: 1
  Total number of deaths: 1/10
[10]; daily dose 900 mg/k
  Number of deaths at day 2: 1
  Total number of deaths: 1/10
[11]
  ED50: 189 mg/kg
